From patent publication US20260216057A1, “PHARMACEUTICAL COMPOSITIONS FOR HERPES VIRUS” (priority 2022, published 2026)

What was measured:
[1] = Example 6: pritelivir (dihydrate) suspension stability and solubility study; type: physicochemical; conditions: 0.9% NaCl + 0.5% polysorbate 80 vehicle, RT
Method: An aqueous suspension of crystalline pritelivir free base (dihydrate) in a 0.9% NaCl+0.5% polysorbate 80 vehicle was prepared as follows: • 1) Vehicle (0.9% w/w NaCl and 0.5% w/w polysorbate 80) was prepared by dissolving NaCl and polysorbate 80 in water. • 2) Excess amounts of pritelivir (dihydrate) were weighed and added to the vehicle to achieve −3 mg/mL suspension. • 3) The suspension was sonicated for 15 minutes, then agitated at 500 rpm at room temperature. • 4) At 24 hours, the suspension was filtrated and the filter cake was dried and analyzed by XRPD. The filtrate was analyzed by HPLC to determine solubility. The HPLC methodology and conditions used to quantify pritelivir in the filtrate are described in Table 11.

[2] = cited from earlier work
recurrent genital herpes = conditions: oral 100, 200, 400, 1200 mg; patients with recurrent genital herpes; cited from earlier work
recurrent genital HSV-2 = conditions: 28 days daily oral dosing; pritelivir 100 mg (after 400 mg loading dose), valacyclovir 500 mg; cited from earlier work

Cc1nc(N(C)C(=O)Cc2ccc(-c3ccccn3)cc2)sc1S(N)(=O)=O [Dihydrate, N-methyl-N-(4-methyl-5-sulfamoyl-1,3-thiazol-2-yl)-2-[4-(pyridin-2-yl)phenyl]acetamide]
solubility at 24 h ([1]; 0.9% NaCl + 0.5% polysorbate 80 aqueous vehicle, aqueous with cosolvent or surfactant or cyclodextrin, thermodynamic from solid, n = 1): 16.5 µg/mL | Insoluble material (solid form by XRPD after solubility experiment) ([1]; 24 hours): Dihydrate

Nc1nc2c(ncn2COCCO)c(=O)[nH]1 [acyclovir]
human bioavailability following oral administration [2]: 10-20%

Cc1cccc(C)c1N(CC(=O)Nc1ccc(-c2ncon2)cc1)C(=O)C1CCS(=O)(=O)CC1 [amenamevir]
time to lesion healing vs placebo (recurrent genital herpes): only significantly different between the very highest 1200 mg single dose group and the placebo-tested group

CC(C)[C@H](N)C(=O)OCCOCn1cnc2c(=O)[nH]c(N)nc21 [valacyclovir]
HSV shedding, % of genital swabs analysed (recurrent genital HSV-2): 5.3%
